From PMC8249783, “A novel multikinase inhibitor SKLB‐YTH‐60 ameliorates inflammation and fibrosis in bleomycin‐induced lung fibrosis mouse models” (Cell Proliferation, 2021)
Like-named read-outs stand apart in the source and are kept apart here.

Columns and labels:
[1] = Pharmacokinetics study after IV and PO administration to SD rats; type: in vivo; details: rat, plasma
Description: The appropriate amount of YTH‐60 was accurately weighed, added to the final volume of 5% DMSO, 40% PEG400 and 55% normal saline, and vortexed or ultrasonicated to fully mix. Then, 0.4 and 2 mg·mL^−1 of clarified dosing solution was used for intravenous administration and oral gavage administration. SD rats were transferred from the Experimental Animal Library (999 M‐017), Shanghai Xipuer‐Beikai Experimental Animal Co. Ltd. After oral, intravenous or intragastric administration, blood was collected by jugular vein or other suitable methods. Approximately 0.20 mL of each sample was collected, in the presence of heparin sodium as an anticoagulant. After the blood samples were collected, they were placed on ice and centrifuged to separate plasma within 2 hours (centrifugation conditions: centrifugal force 6800 g, 6 minutes, 2‐8°C). The collected plasma samples were stored at −80°C before analysis by LC‐MS/MS‐18. After analysis, the remaining plasma samples were stored at −80°C for a period of 1 month.

[2] = test system: infiltrating inflammatory cells in BALF; test: Bronchoalveolar lavage fluid cell count in BLM mice; type: in vivo, C57BL/6 mice; details: 30 mg·kg^−1, day 14
Description: Male C57BL/6 mice (8‐10 weeks old) were purchased from HFK Bioscience Co. Ltd. All animal experiments were permitted by the Institutional Animal Care and Treatment Committee of Sichuan University in China (New Permit Number: 20190524003). Lung fibrosis was induced using BLM treatment (2 mg·kg^−1). All C57BL/6 mice were divided into five groups (n = 10): a BLM + Nintedanib group (Nintedanib, 30 mg·kg^−1), a BLM + YTH‐60 group (YTH‐60, 15 mg·kg^−1 and 30 mg·kg^−1), a control group (Sham), and a bleomycin group (Vehicle). At the beginning, the mice were anaesthetized using 10% chloral hydrate, dissolved BLM with saline and administered intratracheally. To evaluate the preventive effect, the next day after BLM challenge, YTH‐60 and Nintedanib were administered intraperitoneally daily for 13 days (fibroproliferation) to the mice. All mice were sacrificed 24 hours after the last drug injection, the lungs and other organs were taken for the subsequent analysis. To test the therapeutic effect, after the 7th day of BLM treatment, mice were injected intraperitoneally with YTH‐60, Nintedanib and vehicle daily for 7 consecutive days (fibroproliferation).
After the animals were anaesthetized, rinsing the lungs with 1 mL of normal saline three times and collected bronchoalveolar lavage fluid. The total living cell count was performed by an ADVIA 2120i.

[3] = SD, po, 20 mg/kg, PO 20 mg/kg, individual animals 201, 202, 203, read-out: Individual plasma concentration
[4] = SD, po, 20 mg/kg, PO 20 mg/kg, read-out: Mean plasma concentration
[5] = Sprague-Dawley, iv, 2 mg/kg, IV 2 mg/kg, individual animals 101, 102, 103, read-out: Individual plasma concentration
[6] = Sprague-Dawley, iv, 2 mg/kg, IV 2 mg/kg, read-out: Mean plasma concentration
[7] = Sprague-Dawley, po, 20 mg/kg, PO 20 mg/kg, individual animals 201, 202, 203, read-out: Individual plasma concentration
[8] = Sprague-Dawley, po, 20 mg/kg, PO 20 mg/kg, read-out: Mean plasma concentration

COc1cc(OC)c(Cl)c(-c2ccc3c(/C=C/c4ccc(N(C)C(=O)CN5CCN(C)CC5)cc4)n[nH]c3c2)c1Cl [YTH‐60, (E)‐N‐(4‐(2‐(6‐(2,6‐dichloro‐3,5‐dimethoxyphenyl)‐1H‐indazol‐3‐yl)vinyl)phenyl)‐N‐methyl‐2‐(4‐methylpiperazin‐1‐yl)acetamide]
AUC ([1]; SD, iv, 2 mg·kg^−1, SD rats, after an IV dose, read-out: mean AUC(0‐t)): 773 ng·h/mL | concentration at 2 h ([1]; SD, po, 20 mg/kg, PO 20 mg/kg, 2 h, read-out: Mean plasma concentration): 60 ng/mL | concentration at 4 h [1, 3]: 84.7 ng/mL | concentration at 4 h [1, 4]: 85.2 ng/mL | concentration at 6 h [1, 3]: 82.5 ng/mL | concentration at 6 h [1, 4]: 94.2 ng/mL | concentration at 8 h [1, 3]: 67.4 ng/mL | concentration at 8 h [1, 4]: 81.5 ng/mL | AUC ([1]; SD, po, 20 mg/kg, SD rats, 20 mg·kg^−1 oral administration, read-out: mean AUC(0‐t)): 1380 ng·h/mL | AUC ([1]; SD, po, 20 mg/kg, SD rats, p.o. 20 mg·kg^−1, read-out: AUC0‐t): 1380 ± 152 ng·h/mL | AUC ([1]; SD, po, 20 mg/kg, SD rats, p.o. 20 mg·kg^−1, read-out: AUC0‐∞): 1610 ± 177 ng·h/mL | MRT ([1]; SD, po, 20 mg/kg, SD rats, p.o. 20 mg·kg^−1, read-out: MRT0‐t): 8.38 ± 0.31 h | MRT ([1]; SD, po, 20 mg/kg, SD rats, p.o. 20 mg·kg^−1, read-out: MRT0‐∞): 12.4 ± 2.67 h | concentration at 0.083 h [1, 5]: 355 ng/mL | concentration at 0.083 h [1, 6]: 380 ng/mL | concentration at 0.25 h [1, 5]: 187 ng/mL | concentration at 0.25 h [1, 6]: 187 ng/mL | concentration at 0.5 h [1, 5]: 153 ng/mL | concentration at 0.5 h [1, 6]: 149 ng/mL | concentration at 1 h [1, 5]: 112 ng/mL | concentration at 1 h [1, 6]: 117 ng/mL | concentration at 8 h [1, 6]: 25 ng/mL | concentration at 24 h [1, 5]: 2.27 ng/mL | concentration at 24 h [1, 6]: 2.82 ng/mL | concentration at 0.25 h [1, 7]: 33.6 ng/mL | concentration at 0.25 h [1, 8]: 31.6 ng/mL | concentration at 0.5 h [1, 7]: 40.6 ng/mL | concentration at 0.5 h [1, 8]: 33.8 ng/mL | concentration at 1 h [1, 7]: 35.9 ng/mL | concentration at 1 h [1, 8]: 32.1 ng/mL | concentration at 24 h [1, 7]: 24.5 ng/mL | concentration at 24 h [1, 8]: 19.1 ng/mL | Cmax ([1]; iv, SD rats, i.v. 2 mg·kg^−1): 380 ± 37 ng/mL | Tmax ([1]; iv, SD rats, i.v. 2 mg·kg^−1): 0.08 h | half-life ([1]; iv, SD rats, i.v. 2 mg·kg^−1): 295 ± 10.2 min | clearance ([1]; iv, SD rats, i.v. 2 mg·kg^−1, unit inferred): 42.5 mL/min/kg | Cmax ([1]; po, SD rats, p.o. 20 mg·kg^−1): 95.8 ± 16.6 ng/mL | Tmax ([1]; po, SD rats, p.o. 20 mg·kg^−1): 4.67 ± 2.31 h | half-life ([1]; po, SD rats, p.o. 20 mg·kg^−1): 482 ± 130 min | bioavailability ([1]; po, SD rats, p.o. 20 mg·kg^−1, read-out: F (oral bioavailability)): 17.9 ± 1.97% | infiltrating inflammatory cells in BALF (in words) [2]: significantly reduce the number of infiltrating inflammatory cells
